Experimental data published in ChEMBL document CHEMBL2202954, “The effect of PLC-γ2 inhibitors on the growth of human tumour cells” (2012).

What was measured:
Assay type in all cases: functional
[1] = system: MCF7; assay: Cytotoxicity against human MCF7 cells assessed as cellular growth at 10 uM by SRB assay
[2] = system: UO-31; assay: Cytotoxicity against human UO31 cells assessed as cellular growth at 10 uM by SRB assay
[3] = system: RPMI-8226; assay: Cytotoxicity against human RPMI8226 cells assessed as cellular growth at 10 uM by SRB assay
[4] = system: SK-MEL-28; assay: Cytotoxicity against human SK-MEL-28 cells assessed as cellular growth at 10 uM by SRB assay
[5] = system: T47D; assay: Cytotoxicity against human T47D cells assessed as cellular growth at 10 uM by SRB assay
[6] = system: SF-539; assay: Cytotoxicity against human SF539 cells assessed as cellular growth at 10 uM by SRB assay
[7] = system: HCT-116; assay: Cytotoxicity against human HCT116 cells assessed as cellular growth at 10 uM by SRB assay
[8] = system: OVCAR-8; assay: Cytotoxicity against human OVCAR8 cells assessed as cellular growth at 10 uM by SRB assay
[9] = system: SNB-75; assay: Cytotoxicity against human SNB75 cells assessed as cellular growth at 10 uM by SRB assay
[10] = system: ACHN; assay: Cytotoxicity against human ACHN cells assessed as cellular growth at 10 uM by SRB assay
[11] = system: EKVX; assay: Cytotoxicity against human EKVX cells assessed as cellular growth at 10 uM by SRB assay
[12] = system: U-251; assay: Cytotoxicity against human U251 cells assessed as cellular growth at 10 uM by SRB assay
[13] = system: UACC-257; assay: Cytotoxicity against human UACC257 cells assessed as cellular growth at 10 uM by SRB assay
[14] = system: MDA-MB-231; assay: Cytotoxicity against human MDA-MB-231 cells assessed as cellular growth at 10 uM by SRB assay
[15] = system: OVCAR-3; assay: Cytotoxicity against human OVCAR3 cells assessed as cellular growth at 10 uM by SRB assay
[16] = system: SK-MEL-2; assay: Cytotoxicity against human SK-MEL-2 cells assessed as cellular growth at 10 uM by SRB assay
[17] = system: NCI-H226; assay: Cytotoxicity against human NCI-H226 cells assessed as cellular growth at 10 uM by SRB assay
[18] = system: SK-OV-3; assay: Cytotoxicity against human SKOV3 cells assessed as cellular growth at 10 uM by SRB assay
[19] = system: SK-MEL-5; assay: Cytotoxicity against human SK-MEL-5 cells assessed as cellular growth at 10 uM by SRB assay
[20] = system: LOX IMVI; assay: Cytotoxicity against human LOXIMVI cells assessed as cellular growth at 10 uM by SRB assay

Structure (SMILES) | Activity [1] | Activity [2] | Activity [3] | Activity [4] | Activity [5] | Activity [6] | Activity [7] | Activity [8] | Activity [9] | Activity [10] | Activity [11] | Activity [12] | Activity [13] | Activity [14] | Activity [15] | Activity [16] | Activity [17] | Activity [18] | Activity [19] | Activity [20]
Cc1cc(C)c(NC(=O)c2sc3nc4c(cc3c2N)C(=O)CC(C)(C)C4)c(C)c1 | 99.03% | 99.05% | 90.56% | 107.04% | 88.69% | 102.77% | 99.79% | 107.09% | 105.78% | 106.81% | 92.06% | 99.68% | 101.32% | 115.09% | 112.82% | 119.22% | 92.57% | 116.6% | 89.79% | 
Clc1ccccc1Nc1nnc(-c2ccncc2)s1 | 96.02% | 90.67% | 89.16% | 100.34% | 89.46% | 107.62% | 101.59% | 100.07% | 105.58% | 104.09% | 91.68% | 102.87% | 107.89% | 107.89% | 109.8% | 106.68% | 100.58% | 104.92% | 97.75% | 110.09%
Nc1c(C(=O)NCc2ccccc2)sc2nc3c(cc12)C(=O)CCC3 | 110.54% | 109.24% | 109.76% | 118.31% | 106.44% | 105.28% | 108.9% | 114.43% | 113.06% | 112.59% |  | 99.51% | 106.3% | 111.36% | 115.33% | 121.61% | 106.37% | 111.91% | 100.24% | 103.06%
O=c1/c(=C/c2ccccc2)sc2nc(-c3ccc(Cl)cc3Cl)nn12 | 100.42% | 88.97% | 111.72% | 109.52% | 94.32% | 114.11% | 100.59% | 102.91% | 80.26% | 109.45% | 110.01% | 105.46% | 83.86% |  | 105.06% | 117.96% | 100.81% | 98.1% | 104.93% | 96.37%
N#Cc1ccc(-n2nnc3ccccc32)cc1C#N | 82.05% | 88.55% | 100.67% | 104.11% | 86.31% | 101.14% | 102.06% | 99.01% | 120.55% | 102.68% | 79.18% | 91.31% | 89.4% | 111.41% | 101.15% |  | 96.73% | 98.76% | 97.62% | 99.41%
Nc1c(C(=O)Nc2ccccc2)sc2nc3c(cc12)C(=O)CCC3 | 19.61% | 71.08% | 30.21% | 58.69% | 47.06% | 0.84% | 23.57% | 39.92% | 12.41% | 49.71% | 84.59% | 25.69% | 52.83% | 52.08% | -19.35% | 38.68% | 68% | 19.71% | 25.74% | 51.19%
Cc1cc(C)c(NC(=O)c2sc3nc4c(cc3c2N)C(=O)CCC4)c(C)c1 | 16.79% | 56.95% | 31.83% | 55.98% | 40.64% | -6.5% | 23.12% | 45.64% | 0% | 55.26% | 54.36% | 21.13% | 48.69% | 35.68% | 13.17% | 36.14% | 77.05% | 10.43% | 11.34% | 50.61%
Cc1ccccc1NC(=O)c1sc2nc3c(cc2c1N)C(=O)CCC3 | 21.69% | 77.51% | 67.19% | 52.79% | 43.92% | 27.63% | 34.55% | 78.59% | 13.12% | 49.27% | 87.53% | 48.96% | 60.99% | 61.61% | 4.33% | 58.56% | 65.79% | 22.08% | 18.64% | 47.43%
Cc1ccc(Cl)cc1NC(=O)c1sc2nc3c(cc2c1N)C(=O)CCC3 | 35.55% | 83.44% | 95.05% | 67.01% | 82.87% | 47.69% | 67.98% | 89.97% | 48.01% | 55.94% | 75.28% | 59.13% | 44.88% | 80.03% | 22.12% | 64.51% | 88.29% | 42.36% | 26.98% | 68.07%
Cc1ccc(S(=O)(=O)NC2=NC(=O)/C(=C\c3ccccc3)S2)cc1 | 97.41% | 90.79% | 104.04% | 114.12% | 100.5% | 96.06% | 111.6% | 102.48% | 88.62% | 103.63% | 99.77% | 98.58% | 104.4% | 100.89% | 116.48% | 117.54% | 108.84% | 107.71% | 100.29% | 99.09%
Nc1c(C(=O)Nc2cccc(Cl)c2)sc2nc3c(cc12)C(=O)CCC3 | 16.68% | 57.11% | 51.81% | 51.4% | 52.94% | 27.25% | 27.38% | 75.34% | 25.91% | 54.19% | 58.16% | 46.41% | 68.88% | 43.9% | 10.31% | 69.74% | 57.93% | 35.17% | 27.21% | 46.08%
O=C(NCCc1ccccc1)c1cc2cccc([N+](=O)[O-])c2[nH]1 |  | 62.13% | 88.5% | 99.12% | 69.69% | 103.09% | 101.79% | 94.36% |  | 93.06% | 83.28% | 97.58% | 108.88% | 77.17% | 109% | 101.4% | 82.38% | 91.43% | 76.25% | 85.8%
O=C(Nc1ccc(S(=O)(=O)Nc2nccs2)cc1)c1cccs1 | 103.71% | 95.49% | 107.43% | 115.4% | 105.19% | 105.81% | 108.46% | 106.2% | 87.94% | 116.25% | 97.85% | 101.85% | 102.54% | 103.15% | 116.67% | 113.23% | 108.77% | 117.21% | 107.39% | 110.65%
Nc1c(C(=O)Nc2ccccc2F)sc2nc3c(cc12)C(=O)CCC3 | 22.91% | 76% | 52.02% | 64.11% | 40.19% | 10.48% | 32.04% | 58.62% | 13.66% | 65.41% | 56.31% | 31.63% | 66.94% | 48.88% | 16.76% | 42.64% | 75.1% | 13.58% | 17.91% | 54.2%
